Results as given in patent publication US20140323577A1, “METHODS FOR REDUCING THE RISK OF CONVERSION TO CLINICALLY DEFINITE MULTIPLE SCLEROSIS” (Sanofi-Aventis U.S. LLC, priority 2013, published 2014).

Legend:
Assay type in all cases: in vivo, human
[1] = tested on: patients with a first clinical episode suggestive of multiple sclerosis; assay: Confirmed MS relapse / annualized relapse rate (ARR), same study; conditions: for Unadjusted annualized relapses rate / Total number of relapses / Number of patients with ≧1 relapses: No / Number of relapses: 0 (patients) / Number of relapses: 1 (patients) / Number of relapses: 2 (patients) / Number of relapses: >=3 (patients): ITT; for Number of patients with ≧1 relapses: Yes / Number of patients with ≧1 relapses: No / Number of relapses: 0 (patients) / Number of relapses: 1 (patients) / Number of relapses: 2 (patients) / Number of relapses: >=3 (patients): number (%); for Risk reduction of on-treatment adjusted ARR relative to placebo: non-statistically significant
Description: (§1) Methodology: This was a multi-center, multinational, randomized, placebo-controlled, double blind, parallel group (3 groups) study stratified by center and baseline monofocal/multifocal status.
(§2) Diagnosis and criteria for inclusion: Patients with a first acute or subacute, well-defined neurological event consistent with demyelination with onset of MS symptoms occurring within 90 days of randomization; and abnormal MRI with 2 or more T2 lesions at least 3 mm in diameter that are characteristic of MS.
(§3) Statistical methods: Analysis population: Efficacy analyses were based on the intent-to-treat (ITT) population consisting of all randomized patients, as randomized, who had at least 1 day exposure to study medication.
(§4) The key secondary endpoint was analyzed using the same Cox regression model. ARR was analyzed using a Poisson regression model with robust error variance including the number of confirmed relapses with their onset between randomization date and last dose date as the response variable, treatment, region, and baseline monofocal/multifocal status as covariates, and log transformed standardized exposure duration as an offset variable.

[2] = tested on: patients with a first clinical episode suggestive of multiple sclerosis; assay: Time to conversion to DMS (dissemination of MRI lesions in time or a relapse), same study; conditions: for Hazard ratio (95% CI), time to conversion to DMS: Cox proportional hazard model; for Number of patients with conversion to DMS / Number of patients who were censored (time to conversion to DMS) / Number of patients with conversion to DMS: Dissemination of MRI lesion in time / Number of patients with conversion to DMS: Relapse: number (%); for Number of patients who were censored (time to conversion to DMS) / Number of patients with conversion to DMS: Dissemination of MRI lesion in time / Number of patients with conversion to DMS: Relapse / Kaplan-Meier estimates of probability of conversion to DMS (95% CI): ITT
Description: as §1, §2, §3, §4
(§5) Multiplicity procedure: Step down approach was used for multiplicity adjustment for 2 doses of teriflunomide and the primary and key secondary endpoints. Treatment comparison of teriflunomide 14 mg vs. placebo in time to conversion to CDMS was tested at 5% significance level. If significant, comparison of teriflunomide 7 mg vs. placebo in time to conversion to CDMS was tested at 5% significance level. If significant, comparison of teriflunomide 14 mg vs. placebo for the key secondary endpoint was tested at 5% significance level. If significant, comparison of teriflunomide 7 mg vs. placebo for the key secondary endpoint was tested at 5% significance level.

[3] = tested on: patients with a first clinical episode suggestive of multiple sclerosis; assay: Time to conversion to CDMS, randomized double-blind placebo-controlled study; conditions: for Hazard ratio (95% CI), time to conversion to CDMS: Cox proportional hazard model; for Number of patients who were censored (time to conversion to CDMS) / Number of patients with conversion to CDMS: number (%); for Kaplan-Meier estimates of probability of conversion to CDMS (95% CI): ITT
Description: as §1, §2
Efficacy/pharmacodynamics: The primary efficacy variable was time to CDMS defined by the occurrence of a relapse: new neurological abnormality separated by at least 30 days from onset of a preceding clinical event, present for at least 24 hours and occurring in the absence of fever or known infection.
as §3
Efficacy analysis: The primary analysis of time to conversion to CDMS was performed using Cox regression model with treatment, region, and baseline monofocal/multifocal status as independent variables. The assessment of efficacy was based on (pairwise) hazard rate ratio comparisons of each active dose of teriflunomide versus placebo. Two-sided 95% confidence intervals of the hazard rates ratio were provided for each teriflunomide treatment effect estimate versus placebo. The log-rank test was provided as supportive.
as §5

[4] = tested on: patients with a first clinical episode suggestive of multiple sclerosis; assay: Study treatment discontinuation and tolerability, same study
Description: as §1
454 (73.9%) patients completed 108 weeks of study treatment or entered the extension: 71.6% in the placebo group, 73.2% in the teriflunomide 7 mg group, and 75.5% in the teriflunomide 14 mg group. […] The mean (±SD) age was 32.1 (±8.5) years and the study population was primarily Caucasian (96.1%).

[5] = 14 mg once daily, ITT (N = 214)
[6] = 7 mg once daily, randomized population (N = 205)
[7] = 14 mg once daily, randomized population (N = 216)

Structure (SMILES): C/C(O)=C(\C#N)C(=O)Nc1ccc(C(F)(F)F)cc1 [teriflunomide, (Z)-2-cyano-3-hydroxy-but-2-enoic acid-(4′-trifluoromethylphenyl)-amide]
- Adjusted annualized relapse rate, Relative risk (95% CI) ([1]; 7 mg once daily vs placebo, P-value 0.0541): 0.669
- Adjusted annualized relapse rate, Risk difference (95% CI) ([1]; 7 mg once daily vs placebo, P-value 0.0576): −0.094
- Unadjusted annualized relapses rate ([1]; 7 mg once daily): 0.209
- Number of patients with ≧1 relapses: Yes ([1]; 7 mg once daily, ITT (N = 203)): 42 (20.7%)
- Total number of relapses ([1]; 7 mg once daily, 258.5 patient-years followed): 54
- Number of patients with ≧1 relapses: No ([1]; 7 mg once daily): 161 (79.3%)
- Number of relapses: 0 (patients) ([1]; 7 mg once daily): 161 (79.3%)
- Number of relapses: 1 (patients) ([1]; 7 mg once daily): 33 (16.3%)
- Number of relapses: 2 (patients) ([1]; 7 mg once daily): 7 (3.4%)
- Number of relapses: >=3 (patients) ([1]; 7 mg once daily): 2 (1.0%)
- Risk reduction of on-treatment adjusted ARR relative to placebo ([1]; 7 mg once daily, p=0.0541): 33.1%
- Adjusted annualized relapse rate, Relative risk (95% CI) ([1]; 14 mg once daily vs placebo, P-value 0.0579): 0.681
- Adjusted annualized relapse rate, Risk difference (95% CI) ([1]; 14 mg once daily vs placebo, P-value 0.0628): −0.091
- Unadjusted annualized relapses rate ([1]; 14 mg once daily): 0.208
- Number of patients with ≧1 relapses: Yes [1, 5]: 45 (21.0%)
- Total number of relapses ([1]; 14 mg once daily, 288.9 patient-years followed): 60
- Number of patients with ≧1 relapses: No ([1]; 14 mg once daily): 169 (79.0%)
- Number of relapses: 0 (patients) ([1]; 14 mg once daily): 169 (79.0%)
- Number of relapses: 1 (patients) ([1]; 14 mg once daily): 33 (15.4%)
- Number of relapses: 2 (patients) ([1]; 14 mg once daily): 10 (4.7%)
- Number of relapses: >=3 (patients) ([1]; 14 mg once daily): 2 (0.9%)
- Risk reduction of on-treatment adjusted ARR relative to placebo ([1]; 14 mg once daily, p=0.0579): 31.9%
- Hazard ratio (95% CI), time to conversion to DMS ([2]; 7 mg once daily vs placebo, P-value 0.0020, log-rank P 0.0028): 0.686
- Number of patients with conversion to DMS ([2]; 7 mg once daily, ITT (N = 203)): 125 (61.6%)
- Number of patients who were censored (time to conversion to DMS) ([2]; 7 mg once daily): 78 (38.4%)
- Number of patients with conversion to DMS: Dissemination of MRI lesion in time ([2]; 7 mg once daily): 110 (54.2%)
- Number of patients with conversion to DMS: Relapse ([2]; 7 mg once daily): 15 (7.4%)
- Kaplan-Meier estimates of probability of conversion to DMS (95% CI) ([2]; 7 mg once daily, at 24 weeks): 0.457
- Kaplan-Meier estimates of probability of conversion to DMS (95% CI) ([2]; 7 mg once daily, at 48 weeks): 0.573
- Estimated cumulative rate of conversion to DMS (dissemination of MRI lesions in time or confirmed relapse) ([2]; 7 mg once daily, at 108 weeks): 73.3%
- Kaplan-Meier estimates of probability of conversion to DMS (95% CI) ([2]; 7 mg once daily, at 108 weeks): 0.733
- Reduction of the risk of conversion to DMS (dissemination of MRI lesions in time or a relapse) compared to placebo ([2]; 7 mg once daily, p=0.0020): 31.4%
- Hazard ratio (95% CI), time to conversion to DMS ([2]; 14 mg once daily vs placebo, P-value 0.0003, log-rank P 0.0002): 0.651
- Number of patients with conversion to DMS [2, 5]: 136 (63.6%)
- Number of patients who were censored (time to conversion to DMS) ([2]; 14 mg once daily): 78 (36.4%)
- Number of patients with conversion to DMS: Dissemination of MRI lesion in time ([2]; 14 mg once daily): 111 (51.9%)
- Number of patients with conversion to DMS: Relapse ([2]; 14 mg once daily): 25 (11.7%)
- Kaplan-Meier estimates of probability of conversion to DMS (95% CI) ([2]; 14 mg once daily, at 24 weeks): 0.460
- Kaplan-Meier estimates of probability of conversion to DMS (95% CI) ([2]; 14 mg once daily, at 48 weeks): 0.578
- Estimated cumulative rate of conversion to DMS (dissemination of MRI lesions in time or confirmed relapse) ([2]; 14 mg once daily, at 108 weeks): 71.5%
- Kaplan-Meier estimates of probability of conversion to DMS (95% CI) ([2]; 14 mg once daily, at 108 weeks): 0.715
- Reduction of the risk of conversion to DMS (dissemination of MRI lesions in time or a relapse) compared to placebo ([2]; 14 mg once daily, p=0.0003): 34.9%
- Hazard ratio (95% CI), time to conversion to CDMS ([3]; 7 mg once daily vs placebo, P-value 0.0271, log-rank P 0.0422): 0.628
- Number of patients who were censored (time to conversion to CDMS) ([3]; 7 mg once daily, ITT (N = 203)): 164 (80.8%)
- Number of patients with conversion to CDMS ([3]; 7 mg once daily, ITT population (N = 203)): 39 (19.2%)
- Kaplan-Meier estimates of probability of conversion to CDMS (95% CI) ([3]; 7 mg once daily, at 24 weeks): 0.087
- Kaplan-Meier estimates of probability of conversion to CDMS (95% CI) ([3]; 7 mg once daily, at 48 weeks): 0.142
- Estimated cumulative rate of conversion to CDMS ([3]; 7 mg once daily, at 108 weeks): 27.6%
- Kaplan-Meier estimates of probability of conversion to CDMS (95% CI) ([3]; 7 mg once daily, at 108 weeks): 0.276
- Reduction of the risk of conversion to CDMS compared to placebo ([3]; 7 mg once daily, p=0.0271): 37.2%
- Hazard ratio (95% CI), time to conversion to CDMS ([3]; 14 mg once daily vs placebo, P-value 0.0087, log-rank P 0.0133): 0.574
- Number of patients who were censored (time to conversion to CDMS) [3, 5]: 176 (82.2%)
- Number of patients with conversion to CDMS ([3]; 14 mg once daily, ITT population (N = 214)): 38 (17.8%)
- Kaplan-Meier estimates of probability of conversion to CDMS (95% CI) ([3]; 14 mg once daily, at 24 weeks): 0.090
- Kaplan-Meier estimates of probability of conversion to CDMS (95% CI) ([3]; 14 mg once daily, at 48 weeks): 0.137
- Estimated cumulative rate of conversion to CDMS ([3]; 14 mg once daily, at 108 weeks): 24.0%
- Kaplan-Meier estimates of probability of conversion to CDMS (95% CI) ([3]; 14 mg once daily, at 108 weeks): 0.240
- Reduction of the risk of conversion to CDMS compared to placebo ([3]; 14 mg once daily, p=0.0087): 42.6%
- Study treatment discontinuation: Adverse event (number of patients) [4, 6]: 25
- Study treatment discontinuation: Death (number of patients) [4, 6]: 0
- Study treatment discontinuation: Lack of efficacy [4, 6]: (2.9%)
- Study treatment discontinuation: Lack of efficacy (number of patients) [4, 6]: 6
- Study treatment discontinuation: Progressive Disease [4, 6]: (0.5%)
- Study treatment discontinuation: Progressive Disease (number of patients) [4, 6]: 1
- Study treatment discontinuation: Adverse event (number of patients) [4, 7]: 18
- Study treatment discontinuation: Death (number of patients) [4, 7]: 0
- Study treatment discontinuation: Lack of efficacy [4, 7]: (5.6%)
- Study treatment discontinuation: Lack of efficacy (number of patients) [4, 7]: 12
- Study treatment discontinuation: Progressive Disease (number of patients) [4, 7]: 0
- Tolerability / safety profile ([4]; both doses (7 mg and 14 mg once daily)): well tolerated with a manageable safety profile
